In paper PMC9169622 (Proceedings of the National Academy of Sciences of the …, 2022):
Substitutions are numbered along the chain they refer to. Where “and” joins values, the source holds several entries; their conditions need not be identical. Identical values can stand only once.

Columns and labels:
GPR126 [1] = molecular target: T1, GPR126 (Homo sapiens, UniProt Q86SQ4); assay: cell-based; assay type: cell-based
T1 sequence (Q86SQ4 38-1221): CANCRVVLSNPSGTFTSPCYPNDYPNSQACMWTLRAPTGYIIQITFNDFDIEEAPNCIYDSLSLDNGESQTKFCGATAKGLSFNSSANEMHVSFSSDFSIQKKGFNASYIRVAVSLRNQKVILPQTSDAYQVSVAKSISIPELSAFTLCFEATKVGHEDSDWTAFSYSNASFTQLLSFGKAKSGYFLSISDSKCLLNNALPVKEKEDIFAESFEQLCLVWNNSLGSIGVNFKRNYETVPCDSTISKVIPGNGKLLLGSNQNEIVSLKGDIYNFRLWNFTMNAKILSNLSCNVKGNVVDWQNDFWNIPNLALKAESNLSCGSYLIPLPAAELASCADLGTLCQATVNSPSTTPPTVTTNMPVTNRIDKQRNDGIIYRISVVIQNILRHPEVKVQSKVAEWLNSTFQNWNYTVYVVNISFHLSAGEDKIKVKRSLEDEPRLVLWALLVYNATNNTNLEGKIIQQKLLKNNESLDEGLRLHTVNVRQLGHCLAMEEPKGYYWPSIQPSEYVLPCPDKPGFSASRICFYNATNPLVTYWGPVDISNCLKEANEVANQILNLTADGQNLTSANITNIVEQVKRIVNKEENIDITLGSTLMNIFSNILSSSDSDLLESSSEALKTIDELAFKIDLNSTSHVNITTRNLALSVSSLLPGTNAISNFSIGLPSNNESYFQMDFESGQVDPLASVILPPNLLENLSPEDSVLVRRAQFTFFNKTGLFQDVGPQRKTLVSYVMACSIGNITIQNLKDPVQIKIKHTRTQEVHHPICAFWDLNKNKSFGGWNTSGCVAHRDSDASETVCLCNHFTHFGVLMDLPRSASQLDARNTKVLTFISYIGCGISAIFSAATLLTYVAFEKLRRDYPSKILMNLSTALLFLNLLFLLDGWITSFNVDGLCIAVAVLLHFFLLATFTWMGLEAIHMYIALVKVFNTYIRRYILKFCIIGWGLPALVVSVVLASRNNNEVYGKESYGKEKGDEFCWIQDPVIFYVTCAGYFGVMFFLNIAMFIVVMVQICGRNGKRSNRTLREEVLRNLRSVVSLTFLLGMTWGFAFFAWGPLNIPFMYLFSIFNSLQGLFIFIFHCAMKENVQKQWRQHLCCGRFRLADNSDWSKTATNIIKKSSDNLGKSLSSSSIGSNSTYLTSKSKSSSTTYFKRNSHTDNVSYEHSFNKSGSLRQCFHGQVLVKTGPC

GPR126 [2] = molecular target: T1, GPR126; assay type: cell-based
MDA-MB-231 cells [3] = assay type: cell-based, human
GPR126 [4] = molecular target: T1, GPR126; settings: angiotensin II and AT1R as controls
MDA-MB-231 cells [5] = assay: Nude mouse xenograft model; assay type: in vivo, nude mice; settings: 15 mg/kg i.p. every 3 d
SRC = assay: Western blot of p-SRC Y416, p-AKT S473, p-ERK T202/Y204; assay type: cell-based, human; settings: 10 nM
[6] = Plasma progesterone level after intraperitoneal injection; assay type: in vivo, nude mice
PAQR8 = molecular target: T2, PAQR8 (Homo sapiens, UniProt Q8TEZ7); assay: GloSensor cAMP inhibition assay in HEK293 cells overexpressing PAQR8; assay type: cell-based; settings: similar plasma membrane expression levels
T2 sequence (Q8TEZ7 1-354): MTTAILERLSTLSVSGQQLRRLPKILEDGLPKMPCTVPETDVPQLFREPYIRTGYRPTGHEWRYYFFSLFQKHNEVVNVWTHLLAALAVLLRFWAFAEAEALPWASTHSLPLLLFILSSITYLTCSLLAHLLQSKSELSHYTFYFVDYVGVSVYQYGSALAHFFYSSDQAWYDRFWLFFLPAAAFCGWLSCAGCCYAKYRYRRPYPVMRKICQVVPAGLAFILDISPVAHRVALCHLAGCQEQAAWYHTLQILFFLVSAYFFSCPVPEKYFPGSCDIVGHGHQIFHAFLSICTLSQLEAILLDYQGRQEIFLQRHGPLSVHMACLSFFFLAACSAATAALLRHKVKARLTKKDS

PAQR7 = molecular target: T3, PAQR7 (Homo sapiens, UniProt Q86WK9); assay: GloSensor cAMP inhibition assay in HEK293 cells overexpressing PAQR7; assay type: cell-based; settings: similar plasma membrane expression levels
T3 sequence (Q86WK9 1-346): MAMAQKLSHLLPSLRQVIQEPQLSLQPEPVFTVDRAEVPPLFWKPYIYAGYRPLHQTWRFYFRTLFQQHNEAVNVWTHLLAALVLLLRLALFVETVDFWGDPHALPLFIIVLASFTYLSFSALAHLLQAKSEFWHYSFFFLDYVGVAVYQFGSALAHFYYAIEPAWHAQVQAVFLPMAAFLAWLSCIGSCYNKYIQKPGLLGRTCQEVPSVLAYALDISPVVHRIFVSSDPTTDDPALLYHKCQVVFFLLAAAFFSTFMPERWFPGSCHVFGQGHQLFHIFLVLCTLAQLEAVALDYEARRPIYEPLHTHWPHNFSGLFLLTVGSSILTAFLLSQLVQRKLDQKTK

full-length GPR126 [7] = molecular target: T4, full-length GPR126 (Homo sapiens, UniProt Q86SQ4, R1057Q); assay: cell-based; assay type: cell-based
T4 sequence (Q86SQ4 38-1221 R1057Q): T1 sequence (Q86SQ4 38-1221) with R1020Q

full-length GPR126 [8] = molecular target: T5, full-length GPR126 (Homo sapiens, UniProt Q86SQ4); assay: cell-based; assay type: cell-based
T5 sequence (Q86SQ4 38-1221): T1 sequence (Q86SQ4 38-1221)

full-length GPR126 [9] = assay: cell-based; assay type: cell-based, human
GPR126 [10] = molecular target: T1, GPR126; settings: angiotensin II and AT1R as controls; remark: listed apart in the source
GPR126-β = molecular target: T6, GPR126-β (Homo sapiens, UniProt Q86SQ4); assay: GloSensor cAMP inhibition assay, GPR126-β construct; assay type: cell-based
T6 sequence (Q86SQ4 841-1221 limits assumed): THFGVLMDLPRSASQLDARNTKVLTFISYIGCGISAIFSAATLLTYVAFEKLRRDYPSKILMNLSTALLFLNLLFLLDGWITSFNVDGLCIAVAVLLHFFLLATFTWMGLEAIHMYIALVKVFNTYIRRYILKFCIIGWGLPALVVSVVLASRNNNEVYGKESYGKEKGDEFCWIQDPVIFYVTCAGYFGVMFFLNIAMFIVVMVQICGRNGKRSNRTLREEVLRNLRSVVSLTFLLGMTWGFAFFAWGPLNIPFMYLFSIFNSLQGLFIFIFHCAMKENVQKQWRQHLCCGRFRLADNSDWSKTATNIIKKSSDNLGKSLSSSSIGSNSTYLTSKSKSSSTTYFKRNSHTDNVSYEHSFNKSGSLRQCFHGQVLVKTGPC

MDA-MB-231 cells [11] = assay: Colony formation assay; assay type: cell-based, human
GPR126 [12] = assay type: cell-based, human

For `C[C@]12CCC(=O)C=C1CC[C@@H]1[C@@H]2CC[C@@]2(C)[C@H]1CC[C@]2(O)C(=O)CO` [11-deoxycortisol], the EC50 (GPR126 [1]) was 1400 ± 140 nM, the “Emax compared with 126-SMP, cAMP accumulation” value (GPR126 [1]) was “less than one-sixth” and the “effect on intracellular cAMP accumulation” value (GPR126 [1]) was “weak but detectable increase”.
In the case of `C[C@]12CC[C@H]3[C@@H](CCC4=CC(=O)CC[C@@]43C)[C@@H]1CC[C@@H]2O` [testosterone], the EC50 (GPR126 [1]) is reported as 800 ± 60 nM, the “Emax compared with 126-SMP, cAMP accumulation” value (GPR126 [1]) is reported as “less than one-sixth” and the “effect on intracellular cAMP accumulation” value (GPR126 [1]) is reported as “weak but detectable increase”.
For `C=C[C@@]1(C)CC(=O)[C@]2(O)[C@@]3(C)[C@@H](O)CCC(C)(C)[C@@H]3[C@H](O)[C@H](OC(C)=O)[C@@]2(C)O1` [Fsk, Forskolin], the “cAMP up-regulation compared to control vehicle” value (GPR126 [2]) was “approximately three times”.
With `CC(=O)[C@H]1CC[C@H]2[C@@H]3CCC4=CC(=O)CC[C@]4(C)[C@H]3CC[C@]12C` [progesterone] the “growth of GPR126-silenced cells overexpressing wild-type GPR126 or L937A” value (MDA-MB-231 cells [3]) was “significantly promoted”, the “growth promotion in GPR126-silenced cells overexpressing W1081A or F1085A” value (MDA-MB-231 cells [3]) was “significantly attenuated” and the “increase in growth rate of Sh-CTRL cells” value (MDA-MB-231 cells [3]) was “approximately twofold”. The “induced cell growth in GPR126-silenced cells overexpressing R1057Q” value (MDA-MB-231 cells [3]) was “inhibited”, the “proliferation-promoting effect in GPR126-silenced cells” value (MDA-MB-231 cells [3]) was “attenuated” and the “β-arrestin-2 recruitment of GPR126” value (GPR126 [4]) was “no obvious”. The “Gs coupling of GPR126” value (GPR126 [1]) was “not detectable”, the “rates of mouse weight gain between groups” value (MDA-MB-231 cells [5]) was “not significantly different” and the “tumor growth in the Sh-CTRL group” value (MDA-MB-231 cells [5]; 32 d) was “significantly enhanced”. The “tumor growth in the Sh-GPR126-1 group” value (MDA-MB-231 cells [5]; 32 d) was “minimal effects”, the “size and weight of tumors in the Sh-CTRL group” value (MDA-MB-231 cells [5]; after 32 d) was “significantly increased” and the “size and weight of tumors in the Sh-GPR126-1 group” value (MDA-MB-231 cells [5]; after 32 d) was “no significant effects”. For the same compound, the “p-SRC Y416 level, F1085A or W1081A overexpressed in GPR126-silenced cells” value (SRC; 5 min) was “failed to increase”, the “pY416 SRC phosphorylation, GPR126 wild-type or L937A overexpressed in GPR126-silenced cells” value (SRC; 5 min) was “able to promote” and the “time of maximum phosphorylation after treatment” value (SRC; MDA-MB-231 cells) was 5 min. For the same compound, the “phosphorylation of SRC at Y416, p-AKT S473 and p-ERK T202/Y204” value (SRC; MDA-MB-231 cells, time-dependent) was “promoted”, the maximum plasma concentration ([6]; mice, 15 mg/kg intraperitoneal injection) was 151 nM and the steady plasma level ([6]; mice, 15 mg/kg intraperitoneal injection, from 8 h) was 4.547 nM. For the same compound, the Tmax ([6]; nude, mouse, plasma, ip, 15 mg/kg) was roughly 1 h, the “activation of PAQR8 stronger than GPR126 (potency)” value (PAQR8) was roughly 100 fold and the “efficacy at PAQR8 compared with GPR126” value (PAQR8) was “significant lower efficacy”. For the same compound, the “activation of PAQR7 stronger than GPR126 (potency)” value (PAQR7) was roughly 100 fold, the “efficacy at PAQR7 compared with GPR126” value (PAQR7) was “significant lower efficacy” and the “potency in cAMP inhibition assay with GPR126 R1057Q mutant” value (full-length GPR126 [7]) was “decreased the potency”. The “able to inhibit Fsk-induced cAMP accumulation” value (full-length GPR126 [8]) was “able to inhibit”, the EC50 (full-length GPR126 [8]; EC50, cAMP inhibition, full-length GPR126) was 540 nM and ~540 nM and the “GPR126 activity in cAMP inhibition assay with Ala mutants” value (full-length GPR126 [9]) was “significantly impaired”. The “cAMP levels in GPR126 knocking down cells” value (GPR126 [2]) was “no significant effects”, the “cAMP levels induced by Fsk in GPR126-expressing cells” value (GPR126 [2]) was “inhibited” and the “Gq activity of GPR126” value (GPR126 [10]) was “no obvious”. The “EC50 for GPR126-β lower than that of full-length GPR126” value (GPR126-β) was roughly 10 fold, the “colony number and size in Sh-CTRL cells” value (MDA-MB-231 cells [11]; MDA-MB-231 Sh-CTRL, 10 nM) was “increase” and the “increase in colony number and size after GPR126 knockdown” value (MDA-MB-231 cells [11]; MDA-MB-231 Sh-GPR126, 10 nM) was “largely abolished”. For the same compound, the “BRET signal between Nluc-N terminus and FlAsH-labeled S1 site of ECL1” value (GPR126 [12]) was “increase”, the “GPR126 response with mutation of F1085” value (GPR126 [12]) was “impaired” and the “extracellular conformational change of GPR126 with K1001 or F1012 mutated to Ala” value (GPR126 [12]) was “no significant effects”. For the same compound, the “BRET signal between Nluc-tagged N terminus and FlAsH-labeled ECL2” value (GPR126 [12]; concentration-dependent) was “significant increase”.
In the case of `COc1cc2ncnc(Nc3ccc(Oc4ccccc4)cc3)c2cc1OC` [Src-I1], the “effect of SRC inhibitor on progesterone-induced cell growth” value (MDA-MB-231 cells [3]) is reported as “significantly suppressed”.
